# Measured values from PMC9412374, “Design, Synthesis, and Development of pyrazolo[1,5-a]pyrimidine Derivatives as a Novel Series of Selective PI3Kδ Inhibitors: Part I—Indole Derivatives” (Pharmaceuticals, 2022).
# Where two headings read alike, the source gives them in different places.
# How the values were obtained:
# Assay type in all cases: biochemical
# PI3Kβ = target: T1, PI3Kβ (Homo sapiens, UniProt P42338); assay: In vitro kinase inhibition assay for PI3K (ADP-Glo), PI3Kβ; conditions: for Fold Selectivity β/δ: ratio of IC50 PI3Kβ to IC50 PI3Kδ
# T1 construct: purchased Merck Millipore
# Experimental: (§1) Tested compounds were dissolved in 100% DMSO, and obtained solutions were serially diluted in 1× reaction buffer. The recombinant kinase solution was diluted in a reaction mixture comprising 5× reaction buffer, respective compound solution (1 mM sodium diacetate 4,5-bisphosphate phosphatidylinositol (PIP2) solution in 40 mM Tris buffer), and water. In a 96-wells plate, 5 μL of compound solutions and 15 μL of the kinase solution in the reaction mixture were added per well. To initiate the interaction of chemical compounds to be tested with the enzyme, the plate was incubated for 10 min at a suitable temperature in a plate thermostat with orbital shaking at 600 rpm. Negative control wells contained all the above reagents except tested compound and kinase, and positive control wells contained all the above reagents except tested compounds. […] Subsequently, the plate was incubated for 1 h at 25 or 30 °C (depending on the PI3K isoform tested) in a plate thermostat with orbital shaking of the plate contents at 600 rpm. The reaction conditions are combined in the table below (Table 6).
# (§2) Detection of ADP formed in the enzymatic reaction was then performed using ADP-Glo Kinase Assay™ (Promega, Madison, WI, USA). To the wells of a 96-well plate, 25 μL of ADP-Glo Reagent™ was added, and the plate was incubated for 40 min at 25 °C in a plate thermostat with orbital shaking at 600 rpm. Then 50 μL of Kinase Detection Reagent were added to each well, and the plate was incubated for 40 min at 25 °C in a plate thermostat with orbital shaking at 600 rpm. Once the incubation was complete, the luminescence intensity was measured using a Victor Light luminometer (Perkin Elmer, Inc., Waltham, MA, USA). IC50 values were determined based on luminescence intensity measured in wells containing tested compounds at different concentrations in relation to control wells. […] Each compound was tested at least in quadruplicates (4 wells) on two 96-well plates utilizing at least 4 wells for each control.
# PI3Kα = target: T2, PI3Kα (Homo sapiens, UniProt P42336); assay: In vitro kinase inhibition assay for PI3K (ADP-Glo), PI3Kα; conditions: for IC50: IC50 PI3K α, recombinant kinase, ADP-Glo, mean of two independent experiments; for Fold Selectivity α/δ: ratio of IC50 PI3Kα to IC50 PI3Kδ
# T2 construct: purchased Carna Biosciences
# Experimental: Tested compounds were dissolved in 100% DMSO, and obtained solutions were serially diluted in 1× reaction buffer. The recombinant kinase solution was diluted in a reaction mixture comprising 5× reaction buffer, respective compound solution (1 mM sodium diacetate 4,5-bisphosphate phosphatidylinositol (PIP2) solution in 40 mM Tris buffer), and water. In a 96-wells plate, 5 μL of compound solutions and 15 μL of the kinase solution in the reaction mixture were added per well. To initiate the interaction of chemical compounds to be tested with the enzyme, the plate was incubated for 10 min at a suitable temperature in a plate thermostat with orbital shaking at 600 rpm. Negative control wells contained all the above reagents except tested compound and kinase, and positive control wells contained all the above reagents except tested compounds. The enzymatic reaction was initiated by adding 5 μL of 150 μM ATP solution. Subsequently, the plate was incubated for 1 h at 25 or 30 °C (depending on the PI3K isoform tested) in a plate thermostat with orbital shaking of the plate contents at 600 rpm. The reaction conditions are combined in the table below (Table 6).
# Detection of ADP formed in the enzymatic reaction was then performed using ADP-Glo Kinase Assay™ (Promega, Madison, WI, USA). To the wells of a 96-well plate, 25 μL of ADP-Glo Reagent™ was added, and the plate was incubated for 40 min at 25 °C in a plate thermostat with orbital shaking at 600 rpm. Then 50 μL of Kinase Detection Reagent were added to each well, and the plate was incubated for 40 min at 25 °C in a plate thermostat with orbital shaking at 600 rpm. Once the incubation was complete, the luminescence intensity was measured using a Victor Light luminometer (Perkin Elmer, Inc., Waltham, MA, USA). IC50 values were determined based on luminescence intensity measured in wells containing tested compounds at different concentrations in relation to control wells. These values were calculated with Graph Pad 5.03 software by fitting the curve using non-linear regression. Each compound was tested at least in quadruplicates (4 wells) on two 96-well plates utilizing at least 4 wells for each control. Averaged results of inhibition activity respective to specific isoforms of PI3K kinases for tested compounds are presented as IC50 values in Table 1, Table 2, Table 3 and Table 4.
# PI3Kδ = target: T3, PI3Kδ (Homo sapiens, UniProt O00329); assay: In vitro kinase inhibition assay for PI3K (ADP-Glo), PI3Kδ; conditions: recombinant kinase, mean of two independent experiments, read-out: IC50 PI3K δ
# T3 construct: purchased Merck Millipore
# Experimental: as §1, §2
# PI3Kγ = target: T4, PI3Kγ (Homo sapiens, UniProt P48736); assay: In vitro kinase inhibition assay for PI3K (ADP-Glo), PI3Kγ; conditions: for Fold Selectivity γ/δ: ratio of IC50 PI3Kγ to IC50 PI3Kδ
# T4 construct: purchased Merck Millipore
# Experimental: as §1, §2
# [1] = recombinant kinase, ADP-Glo, mean of two independent experiments, read-out: IC50 PI3K β
# [2] = recombinant kinase, ADP-Glo, mean of two independent experiments, read-out: IC50 PI3K γ
# T2 sequence (P42336 whole entry): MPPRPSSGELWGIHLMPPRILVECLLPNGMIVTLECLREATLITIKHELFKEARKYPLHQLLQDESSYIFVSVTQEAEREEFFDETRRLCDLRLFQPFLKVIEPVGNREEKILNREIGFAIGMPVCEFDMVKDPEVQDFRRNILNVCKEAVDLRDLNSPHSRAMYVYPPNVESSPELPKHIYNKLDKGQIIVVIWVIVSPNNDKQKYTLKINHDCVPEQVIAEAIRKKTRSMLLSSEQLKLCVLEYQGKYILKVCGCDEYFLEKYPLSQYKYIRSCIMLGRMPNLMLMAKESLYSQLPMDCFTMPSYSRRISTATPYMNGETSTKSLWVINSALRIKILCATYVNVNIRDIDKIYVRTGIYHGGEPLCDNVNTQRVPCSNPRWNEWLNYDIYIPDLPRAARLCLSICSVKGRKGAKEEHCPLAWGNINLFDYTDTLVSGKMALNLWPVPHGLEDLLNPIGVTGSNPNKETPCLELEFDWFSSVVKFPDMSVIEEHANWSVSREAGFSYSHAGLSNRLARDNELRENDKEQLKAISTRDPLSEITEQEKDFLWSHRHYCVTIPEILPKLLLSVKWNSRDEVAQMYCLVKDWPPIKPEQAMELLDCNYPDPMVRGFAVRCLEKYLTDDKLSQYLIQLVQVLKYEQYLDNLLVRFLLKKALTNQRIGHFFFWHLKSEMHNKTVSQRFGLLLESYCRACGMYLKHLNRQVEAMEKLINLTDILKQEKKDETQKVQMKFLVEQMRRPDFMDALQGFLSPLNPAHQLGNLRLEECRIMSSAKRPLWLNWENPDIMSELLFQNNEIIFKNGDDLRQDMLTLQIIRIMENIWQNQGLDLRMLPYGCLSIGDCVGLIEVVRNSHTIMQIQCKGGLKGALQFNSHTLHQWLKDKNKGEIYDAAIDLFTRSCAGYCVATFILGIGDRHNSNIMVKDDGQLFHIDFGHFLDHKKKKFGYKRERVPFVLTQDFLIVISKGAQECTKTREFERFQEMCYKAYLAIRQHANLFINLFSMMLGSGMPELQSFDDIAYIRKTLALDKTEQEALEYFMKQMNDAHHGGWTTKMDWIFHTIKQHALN
# T2 sequence (P27986 whole entry partner): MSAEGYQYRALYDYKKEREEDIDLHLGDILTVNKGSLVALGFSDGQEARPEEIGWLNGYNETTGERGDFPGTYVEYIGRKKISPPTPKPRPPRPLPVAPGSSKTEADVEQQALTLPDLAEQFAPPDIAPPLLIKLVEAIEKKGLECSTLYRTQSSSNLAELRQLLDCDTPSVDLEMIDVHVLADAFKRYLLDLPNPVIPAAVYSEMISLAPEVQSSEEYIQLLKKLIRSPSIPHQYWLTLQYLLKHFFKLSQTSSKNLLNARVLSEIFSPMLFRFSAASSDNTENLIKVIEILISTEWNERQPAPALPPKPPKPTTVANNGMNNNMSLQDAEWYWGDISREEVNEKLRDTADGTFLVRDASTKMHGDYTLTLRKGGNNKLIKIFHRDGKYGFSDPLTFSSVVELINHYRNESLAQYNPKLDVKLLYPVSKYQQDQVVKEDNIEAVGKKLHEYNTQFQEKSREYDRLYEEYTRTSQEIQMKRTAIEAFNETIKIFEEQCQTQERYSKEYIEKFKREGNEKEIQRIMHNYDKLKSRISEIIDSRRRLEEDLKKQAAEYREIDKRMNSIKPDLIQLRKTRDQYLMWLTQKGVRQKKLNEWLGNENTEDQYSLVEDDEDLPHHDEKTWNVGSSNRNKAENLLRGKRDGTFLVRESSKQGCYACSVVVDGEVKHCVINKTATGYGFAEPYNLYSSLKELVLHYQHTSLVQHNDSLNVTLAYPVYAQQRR
# T4 sequence (P48736 whole entry): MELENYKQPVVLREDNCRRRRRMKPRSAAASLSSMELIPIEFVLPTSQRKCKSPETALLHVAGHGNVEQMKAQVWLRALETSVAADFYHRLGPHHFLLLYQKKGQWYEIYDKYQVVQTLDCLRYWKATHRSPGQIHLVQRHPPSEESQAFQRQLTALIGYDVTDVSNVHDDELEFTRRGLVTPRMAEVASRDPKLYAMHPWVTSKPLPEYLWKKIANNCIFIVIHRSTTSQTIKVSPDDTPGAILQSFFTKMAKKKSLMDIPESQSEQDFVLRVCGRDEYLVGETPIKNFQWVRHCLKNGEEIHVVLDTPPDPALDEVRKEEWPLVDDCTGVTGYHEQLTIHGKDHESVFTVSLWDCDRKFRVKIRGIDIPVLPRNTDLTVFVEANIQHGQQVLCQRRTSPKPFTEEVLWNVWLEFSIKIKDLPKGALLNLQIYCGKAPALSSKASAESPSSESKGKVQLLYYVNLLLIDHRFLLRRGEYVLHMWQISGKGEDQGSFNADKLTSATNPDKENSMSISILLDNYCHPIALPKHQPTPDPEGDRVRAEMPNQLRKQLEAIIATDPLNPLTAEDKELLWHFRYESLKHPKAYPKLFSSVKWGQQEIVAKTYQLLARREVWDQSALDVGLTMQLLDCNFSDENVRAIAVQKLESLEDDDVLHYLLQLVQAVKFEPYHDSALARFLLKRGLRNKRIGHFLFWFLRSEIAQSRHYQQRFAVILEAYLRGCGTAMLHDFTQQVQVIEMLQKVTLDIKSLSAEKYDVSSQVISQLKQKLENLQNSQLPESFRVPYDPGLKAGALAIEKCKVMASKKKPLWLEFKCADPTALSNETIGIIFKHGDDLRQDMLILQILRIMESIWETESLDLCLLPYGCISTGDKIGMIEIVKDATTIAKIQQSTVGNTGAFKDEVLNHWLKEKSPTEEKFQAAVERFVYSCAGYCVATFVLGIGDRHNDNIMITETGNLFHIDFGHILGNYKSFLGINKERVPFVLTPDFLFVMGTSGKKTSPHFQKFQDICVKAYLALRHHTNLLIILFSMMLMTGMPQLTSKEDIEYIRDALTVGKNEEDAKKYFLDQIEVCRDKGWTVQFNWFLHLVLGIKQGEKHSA
# T3 sequence (P27986 whole entry): as the sequence (P27986 whole entry partner) above
# T3 sequence (O00329 whole entry): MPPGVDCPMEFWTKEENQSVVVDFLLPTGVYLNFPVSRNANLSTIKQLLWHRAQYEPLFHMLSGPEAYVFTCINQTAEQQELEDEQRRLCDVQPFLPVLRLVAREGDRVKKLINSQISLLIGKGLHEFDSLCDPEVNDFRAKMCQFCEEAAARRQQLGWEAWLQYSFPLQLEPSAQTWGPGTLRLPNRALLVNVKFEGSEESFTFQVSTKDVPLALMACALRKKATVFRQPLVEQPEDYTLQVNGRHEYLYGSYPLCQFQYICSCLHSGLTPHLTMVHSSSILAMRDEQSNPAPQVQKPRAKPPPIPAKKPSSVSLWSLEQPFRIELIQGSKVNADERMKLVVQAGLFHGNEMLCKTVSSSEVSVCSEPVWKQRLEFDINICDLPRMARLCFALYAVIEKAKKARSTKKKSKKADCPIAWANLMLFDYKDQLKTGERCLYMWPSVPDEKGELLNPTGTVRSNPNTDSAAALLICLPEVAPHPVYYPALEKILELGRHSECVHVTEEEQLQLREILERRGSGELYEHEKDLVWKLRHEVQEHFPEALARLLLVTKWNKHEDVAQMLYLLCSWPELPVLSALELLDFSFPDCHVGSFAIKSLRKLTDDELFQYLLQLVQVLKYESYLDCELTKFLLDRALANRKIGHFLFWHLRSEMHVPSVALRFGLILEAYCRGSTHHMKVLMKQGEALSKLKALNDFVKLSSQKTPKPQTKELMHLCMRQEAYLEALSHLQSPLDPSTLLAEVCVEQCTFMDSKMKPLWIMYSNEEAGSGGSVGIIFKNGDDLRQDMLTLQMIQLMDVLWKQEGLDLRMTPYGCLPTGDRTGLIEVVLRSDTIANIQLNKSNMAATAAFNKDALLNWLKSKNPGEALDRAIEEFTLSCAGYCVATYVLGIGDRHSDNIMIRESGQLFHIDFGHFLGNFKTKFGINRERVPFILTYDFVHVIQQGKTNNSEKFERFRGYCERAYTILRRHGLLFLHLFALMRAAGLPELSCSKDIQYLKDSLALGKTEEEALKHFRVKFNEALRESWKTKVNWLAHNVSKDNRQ
# T1 sequence (P42338 whole entry): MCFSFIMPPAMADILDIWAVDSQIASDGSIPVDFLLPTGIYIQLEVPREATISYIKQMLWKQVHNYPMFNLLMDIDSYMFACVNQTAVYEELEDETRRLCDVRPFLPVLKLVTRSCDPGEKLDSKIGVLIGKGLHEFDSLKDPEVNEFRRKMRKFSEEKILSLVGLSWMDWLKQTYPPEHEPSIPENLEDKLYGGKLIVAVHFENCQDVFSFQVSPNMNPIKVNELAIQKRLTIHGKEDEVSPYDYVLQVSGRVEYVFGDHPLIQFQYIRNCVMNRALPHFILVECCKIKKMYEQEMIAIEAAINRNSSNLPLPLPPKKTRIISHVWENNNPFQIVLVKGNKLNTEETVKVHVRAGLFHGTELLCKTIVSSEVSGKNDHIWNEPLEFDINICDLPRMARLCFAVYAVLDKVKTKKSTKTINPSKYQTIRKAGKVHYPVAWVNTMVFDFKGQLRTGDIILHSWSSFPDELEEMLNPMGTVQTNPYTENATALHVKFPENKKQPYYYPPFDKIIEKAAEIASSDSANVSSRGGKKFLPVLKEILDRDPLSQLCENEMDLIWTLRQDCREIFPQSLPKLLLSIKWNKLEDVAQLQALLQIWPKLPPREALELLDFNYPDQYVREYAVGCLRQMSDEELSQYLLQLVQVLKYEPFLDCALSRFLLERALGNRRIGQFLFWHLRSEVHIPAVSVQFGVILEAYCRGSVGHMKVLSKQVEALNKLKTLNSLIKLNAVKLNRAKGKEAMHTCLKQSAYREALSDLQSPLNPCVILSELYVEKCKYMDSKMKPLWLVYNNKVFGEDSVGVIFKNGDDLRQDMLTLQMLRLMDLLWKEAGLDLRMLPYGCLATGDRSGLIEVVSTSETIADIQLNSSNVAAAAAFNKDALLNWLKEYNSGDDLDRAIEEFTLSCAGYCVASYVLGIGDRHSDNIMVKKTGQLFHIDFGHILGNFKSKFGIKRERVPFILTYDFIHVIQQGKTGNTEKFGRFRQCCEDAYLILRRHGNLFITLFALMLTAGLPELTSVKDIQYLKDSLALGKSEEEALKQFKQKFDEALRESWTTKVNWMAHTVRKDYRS
# T1 sequence (P27986 whole entry, further chain): as the sequence (P27986 whole entry partner) above
SMILES,Fold Selectivity β/δ (PI3Kβ),IC50 (PI3Kβ; [1]) [µM],IC50 (PI3Kα) [µM],Fold Selectivity α/δ (PI3Kα),IC50 (PI3Kδ) [µM],Fold Selectivity γ/δ (PI3Kγ),IC50 (PI3Kγ; [2]) [µM],IC50 (PI3Kγ) [µM],IC50 (PI3Kβ) [µM]
"CC(C)(O)C1CCN(Cc2cc3nc(-c4cncc5[nH]ccc45)cc(N4CCOCC4)n3n2)CC1 [Compound 50, 2-((4-(2-hydroxypropan-2-yl)piperidin-1-yl)methyl)-5-(1H-pyrrolo [2,3-c]pyridin-4-yl)-7-(morpholin-4-yl)pyrazolo[1,5-a]pyrimidine]",188,5.26,3.65,130,0.028,–,–,–,–
"c1cc(-c2cc(N3CCOCC3)n3nc(CN4CCN(C5CC5)CC4)cc3n2)c2cc[nH]c2c1 [Compound 39, 2-((4-cyclopropylpiperazin-1-yl)methyl)-5-(1H-indol-4-yl)-7-(morpholin-4-yl)pyrazolo[1,5-a]pyrimidine]",259,15,25.3,436,0.058,–,–,–,–
"CC(C)(O)C1CCN(Cc2cc3nc(-c4ccnc5[nH]ccc45)cc(N4CCOCC4)n3n2)CC1 [Compound 51, 2-((4-(2-hydroxypropan-2-yl)piperidin-1-yl)methyl)-5-(1H-pyrrolo [2,3-b]pyridin-4-yl)-7-(morpholin-4-yl)pyrazolo[1,5-a]pyrimidine]",1165,26.8,9.75,424,0.023,–,–,–,–
"CC(C)(O)C1CCN(Cc2cc3nc(-c4c(F)ccc5[nH]ccc45)cc(N4CCOCC4)n3n2)CC1 [Compound 49, 2-((4-(2-hydroxypropan-2-yl)piperidin-1-yl)methyl)-5-(5-fluoro-1H-indol-4-yl)-7-(morpholin-4-yl)pyrazolo[1,5-a]pyrimidine]",283,11.3,34.4,860,0.04,1195,47.8,–,–
"CCN1CCN(Cc2cc3nc(-c4cccc5[nH]ccc45)cc(N4CCOCC4)n3n2)CC1 [Compound 34, 2-((4-ethylpiperazin-1-yl)methyl)-5-(1H-indol-4-yl)-7-(morpholin-4-yl)pyrazolo[1,5-a]pyrimidine]",253,10.9,34.3,798,0.043,>1395,> 60,–,–
"CC(C)(C)C1CCN(Cc2cc3nc(-c4cccc5[nH]ccc45)cc(N4CCOCC4)n3n2)CC1 [Compound 41, 2-((4-tert-butylpiperidin-1-yl)methyl)-5-(1H-indol-4-yl)-7-(morpholin-4-yl)pyrazolo[1,5-a]pyrimidine]",62,3.17,12.3,241,0.051,191,9.73,–,–
"O=C(C1CC1)N1CCN(Cc2cc3nc(-c4cccc5[nH]ccc45)cc(N4CCOCC4)n3n2)CC1 [Compound 44, 2-((4-(cyclopropanecarbonyl)piperazin-1-yl)methyl)-5-(1H-indol-4-yl)-7-(morpholin-4-yl)pyrazolo[1,5-a]pyrimidine]",332,7.31,1.27,58,0.022,38,0.846,–,–
"CC(C)(O)C1CCN(Cc2cc3nc(-c4cccc5[nH]ccc45)cc(N4CCOCC4)n3n2)CC1 [Compound 36, 2-((4-(2-hydroxypropan-2-yl)piperidin-1-yl)methyl)-5-(1H-indol-4-yl)-7-(morpholin-4-yl)pyrazolo[1,5-a]pyrimidine]",332,4.31,15.8,1217,0.013,1223,–,15.9,–
"CC(C)(C)N1CCN(Cc2cc3nc(-c4ccnc5[nH]ccc45)cc(N4CCOCC4)n3n2)CC1 [Compound 55, 2-((4-tert-butylpiperazin-1-yl)methyl)-5-(1H-pyrrolo [2,3-b]pyridin-4-yl)-7-(morpholin-4-yl)pyrazolo[1,5-a]pyrimidine]",711,32,2.96,66,0.045,–,–,–,–
"CN(C)C1CCN(Cc2cc3nc(-c4cccc5[nH]ccc45)cc(N4CCOCC4)n3n2)CC1 [Compound 24, 2-((4-(dimethylamino)piperidin-1-yl)methyl)-5-(1H-indol-4-yl)-7-(morpholin-4-yl)pyrazolo[1,5-a]pyrimidine]",389,14.4,6.38,172,0.037,1332,49.3,–,–
"CC(C)(C(N)=O)N1CCN(Cc2cc3nc(-c4cccc5[nH]ccc45)cc(N4CCOCC4)n3n2)CC1 [Compound 38, 2-(4-((5-(1H-indol-4-yl)-7-(morpholin-4-yl)pyrazolo[1,5-a]pyrimidin-2-yl)methyl)piperazin-1-yl)-2-methylpropionamide]",146,5.99,17.7,433,0.041,428,–,17.5,–
"CC(C)(C)N1CCN(Cc2cc3nc(-c4c(F)ccc5[nH]ccc45)cc(N4CCOCC4)n3n2)CC1 [Compound 53, 2-((4-tert-butylpiperazin-1-yl)methyl)-5-(5-fluoro-1H-indol-4-yl)-7-(morpholin-4-yl)pyrazolo[1,5-a]pyrimidine]",1768,–,19.3,1754,0.011,>5455,> 60,–,19.5
